In ChEMBL document CHEMBL4706653, “Ultra-short lipopeptides against gram-positive bacteria while alleviating antimicrobial resistance” (Eur J Med Chem, 2021):
Active and inactive are the calls of the source. The calls are words filed in the database; no cut-off is given here. Residues, ends and D or L forms follow the SMILES beside them. *: point of attachment. Myristoyl = CCCCCCCCCCCCCC(=O)*; Lauroyl = CCCCCCCCCCCC(=O)*

Key:
Staphylococcus aureus = experiment: Antimicrobial activity against Staphylococcus aureus ATCC 25923 assessed as bacterial killing at 2 times MIC preincubated for 2 hrs followed by replating on MHB agar and measured after 24 hrs by time kill assay; assay type: functional, organism-based; details: time 26.0 hrs
Cell membrane = experiment: Induction of cytoplasmic membrane disruption in Staphylococcus aureus ATCC 25923 at 0.5 to 4 times MIC measured for 15 mins by DiSC3-5 dye based fluorescence assay
[1] = Toxicity in BALB/c mouse assessed as inflammatory cell infiltration in liver at 80 mg/kg, ip administered as single dose measured after 5 days; assay type: organism-based; details: in vivo, 120 h, time 5 day

Row | Structure (SMILES) | Activity (Staphylococcus aureus) | Activity (Cell membrane) | Activity [1]
1 | CCCCCCCCCCCC(=O)N[C@@H](CCCNC(=N)N)C(=O)N[C@@H](CCCNC(=N)N)C(=O)N[C@@H](Cc1c[nH]c2ccccc12)C(N)=O (Lauroyl-Arg-Arg-Trp-NH2) | Active | – | –
2 | CCCCCCCCCCCCCC(=O)N[C@@H](CCCNC(=N)N)C(=O)N[C@@H](Cc1c[nH]c2ccccc12)C(=O)N[C@@H](Cc1c[nH]c2ccccc12)C(N)=O (Myristoyl-Arg-Trp-Trp-NH2) | – | Active | Toxic
